Measurements: paper PMC8003485, “Synthesis and Evaluation of Novel α-Aminoamides Containing Benzoheterocyclic Moiety for the Treatment of Pain” (Molecules, 2021)
Where two headings read alike, the source gives them in different places.

Assays:
ICR (CD−1) male mice [1] = assay: Formalin test (mouse, phase II paw licking); format: in vivo; settings: for % Analgesia (formalin test) / inhibition in vivo at 10 mg/kg / Percentage of analgesia relative to ralfinamide (times higher): 10 mg/kg; for % Analgesia (formalin test) / inhibition in vivo at 10 mg/kg: i.p., phase II (15–30 min), mean ± SD, n = 8; for inhibition in vivo at 10 mg/kg: Mus musculus, ip, read-out: % Analgesia (formalin test)
Description: The formalin test was carried out using the method described previously. During the formalin test, Institute of Cancer Research (ICR; CD−1) male mice (weight: 22–25 g) were acclimated to the environment for two days before the experiment with food and water available freely. The mice were housed under a 12 h/12 h light/dark cycle. The temperature and humidity of the room were kept at 25 ± 2 °C and 50–60%, respectively. The mice were divided into a vehicle group, a ralfinamide group, and test compound groups randomly, with eight mice in each group. All compounds were dissolved in saline and administered by intraperitoneal injection (n = 8) or intragastric administration by mouth (n = 8) at 10 mg/kg. The vehicle group was given the same volume of saline.
After administration, the mice were placed into polyvinyl chloride (PVC) observation chambers. Thirty minutes later, the mice were injected subcutaneously with 20 μL of 2.7% formalin solution into the surface of their right hind paw and were returned to their PVC chambers immediately to observe their behavior. The cumulative time each mouse licked its right hind paw during phase II (15–30 min) was recorded as its painful time in phase II. The analgesic effects of the compounds were presented as the mean ± standard deviation. The data were analyzed by SPSS using one-way analysis of variance followed by Dunnett’s test. The analgesic activity of the test compounds was calculated according to the following formula. %Analgesia=Average Time (Vehicle)−Average Time (Drug)/Average Time (Vehicle)× 100%

ICR (CD-1) male mice = assay: Acetic acid-induced writhing test; format: in vivo; settings: 10 mg/kg, i.p.; writhes in 20 min; mean ± SD, n = 6
Description: The writhing test was performed according to a previously reported method. The ICR (CD-1) male mice (weight: 22–25 g) were treated as for the formalin test in the same environment. The mice were divided into a vehicle group, a ralfinamide group, and test compound groups randomly, with six mice in each group. All compounds were dissolved in saline and administered by intraperitoneal injection at 10 mg/kg. The vehicle group was given the same volume of saline. After administration, the mice were placed into PVC chambers. Thirty minutes later, the mice were injected with 1% acetic acid solution at 10 mL/kg by intraperitoneal injection and placed into the observation chambers immediately to record the number of writhes each mouse had in 20 min. The results were presented as the mean ± standard deviation. The analytical method was the same as that for the formalin test, and the analgesic activity of each compound was calculated by the following formula. %Analgesia=Average Number (Vehicle)−Average Number (Drug)/Average Number (Vehicle)× 100%

hNav1.7 = biological target: T1, hNav1.7 (Homo sapiens, UniProt Q15858); assay: Whole-cell patch clamp assay for hNav1.7 inhibition (HEK293 cells stably expressing hNav1.7); format: cell-based; settings: for inhibition at 10 µM: HEK293, TTX-sensitive Nav1.7 current, mean ± SD; for IC50: TTX-sensitive inactivated Nav1.7 current
T1 construct: expressed in transfected cells; host or cells: HEK293
Description: The compounds were tested as hNav1.7 peak current inhibitors at room temperature using human embryonic kidney 293 cells stably expressing hNav1.7. The holding voltage was depolarized to 0 mV from −120 mV for 20 ms and restored to −75 mV for 8 s. After that, the membrane potential was recovered to −120 mV for 20 ms and then depolarized to 0 mV for another 20 ms. Finally, the voltage was renewed to −120 mV for 30 ms. The potential was applied every 20 s. The compounds were administered when the voltage of hNav1.7 recorded by the whole-cell patch clamp was stable. Every compound concentration was tested for 5 min, and all compounds were tested at several concentrations and with multiple cells.

hNav1.8 = biological target: T2, hNav1.8 (Homo sapiens, UniProt Q9Y5Y9); assay: Whole-cell patch clamp assay for hNav1.8 inhibition (CHO cells stably expressing hNav1.8); format: cell-based; settings: for IC50: Nav1.8 inactivated state Na+ currents
T2 construct: expressed in transfected cells; host or cells: CHO
Description: The whole-cell patch clamp assay assessing the hNav1.8 current was carried out at room temperature with Chinese hamster ovary cells stably expressing hNav1.8. The holding voltage of the membrane was transferred to 0 mV from −120 mV for 50 ms and then restored to −50 mV for 8 s. After that, the membrane potential was renewed to −120 mV for 20 ms, which was followed by a depolarization to 0 mV for 50 ms. Finally, the potential was recovered to the holding voltage of −120 mV for 30 ms. This process was performed every 20 s. The compounds were administered when the voltage of hNav1.8 was stable. Every compound concentration was tested for 5 min, and all compounds were tested at several concentrations and with multiple cells.

hNav1.5 = biological target: T3, hNav1.5 (Homo sapiens, UniProt Q14524); assay: Assay for hNav1.5 inhibition (HEK293 cells stably expressing hNav1.5); format: cell-based; settings: for inhibition at 10 µM: HEK293, read-out: Inhibitory Effect to Nav1.5; for Inhibitory activity against Nav1.5 (in words): similarly to ralfinamide, low selectivity over the cardiac sodium channel
T3 construct: expressed in transfected cells; host or cells: HEK293
Description: The inhibition of the compounds to hNav1.5 peak current was performed at room temperature using HEK293 cells that could express hNav1.5 stably. The holding voltage of the membrane was transferred to 0 mV from −120 mV for 50 ms and then restored to −50 mV for 8 s. After that, the membrane potential was renewed to −120 mV for 20 ms, followed by a depolarization to 0 mV for 50 ms. At last, the potential was recovered to the holding voltage −120 mV for 30 ms. This progress was performed every 20 s. The compounds were administrated when the voltage of hNav1.5 was stable. Every concentration was tested for 5 min and all compounds were tested at several concentrations and with multiple cells.

mouse [2] = assay: Mouse hotplate assay; format: in vivo; settings: even at a high dose of 100 mg/kg; data not shown
mouse [3] = assay: Mouse tail flick assay; format: in vivo; settings: even at a high dose of 100 mg/kg; data not shown
ICR (CD−1) male mice [4] = assay: Formalin test (mouse, phase II paw licking); format: in vivo; settings: for Analgesic response (formalin test): dose-effect relationship assay
[5] = read-out: Inhibitory Effect against Nav1.7, Activated State (TP−1)
[6] = read-out: Inhibitory Effect against Nav1.7, Inactivated State (TP−2)

T3 sequence (Q14524 whole entry): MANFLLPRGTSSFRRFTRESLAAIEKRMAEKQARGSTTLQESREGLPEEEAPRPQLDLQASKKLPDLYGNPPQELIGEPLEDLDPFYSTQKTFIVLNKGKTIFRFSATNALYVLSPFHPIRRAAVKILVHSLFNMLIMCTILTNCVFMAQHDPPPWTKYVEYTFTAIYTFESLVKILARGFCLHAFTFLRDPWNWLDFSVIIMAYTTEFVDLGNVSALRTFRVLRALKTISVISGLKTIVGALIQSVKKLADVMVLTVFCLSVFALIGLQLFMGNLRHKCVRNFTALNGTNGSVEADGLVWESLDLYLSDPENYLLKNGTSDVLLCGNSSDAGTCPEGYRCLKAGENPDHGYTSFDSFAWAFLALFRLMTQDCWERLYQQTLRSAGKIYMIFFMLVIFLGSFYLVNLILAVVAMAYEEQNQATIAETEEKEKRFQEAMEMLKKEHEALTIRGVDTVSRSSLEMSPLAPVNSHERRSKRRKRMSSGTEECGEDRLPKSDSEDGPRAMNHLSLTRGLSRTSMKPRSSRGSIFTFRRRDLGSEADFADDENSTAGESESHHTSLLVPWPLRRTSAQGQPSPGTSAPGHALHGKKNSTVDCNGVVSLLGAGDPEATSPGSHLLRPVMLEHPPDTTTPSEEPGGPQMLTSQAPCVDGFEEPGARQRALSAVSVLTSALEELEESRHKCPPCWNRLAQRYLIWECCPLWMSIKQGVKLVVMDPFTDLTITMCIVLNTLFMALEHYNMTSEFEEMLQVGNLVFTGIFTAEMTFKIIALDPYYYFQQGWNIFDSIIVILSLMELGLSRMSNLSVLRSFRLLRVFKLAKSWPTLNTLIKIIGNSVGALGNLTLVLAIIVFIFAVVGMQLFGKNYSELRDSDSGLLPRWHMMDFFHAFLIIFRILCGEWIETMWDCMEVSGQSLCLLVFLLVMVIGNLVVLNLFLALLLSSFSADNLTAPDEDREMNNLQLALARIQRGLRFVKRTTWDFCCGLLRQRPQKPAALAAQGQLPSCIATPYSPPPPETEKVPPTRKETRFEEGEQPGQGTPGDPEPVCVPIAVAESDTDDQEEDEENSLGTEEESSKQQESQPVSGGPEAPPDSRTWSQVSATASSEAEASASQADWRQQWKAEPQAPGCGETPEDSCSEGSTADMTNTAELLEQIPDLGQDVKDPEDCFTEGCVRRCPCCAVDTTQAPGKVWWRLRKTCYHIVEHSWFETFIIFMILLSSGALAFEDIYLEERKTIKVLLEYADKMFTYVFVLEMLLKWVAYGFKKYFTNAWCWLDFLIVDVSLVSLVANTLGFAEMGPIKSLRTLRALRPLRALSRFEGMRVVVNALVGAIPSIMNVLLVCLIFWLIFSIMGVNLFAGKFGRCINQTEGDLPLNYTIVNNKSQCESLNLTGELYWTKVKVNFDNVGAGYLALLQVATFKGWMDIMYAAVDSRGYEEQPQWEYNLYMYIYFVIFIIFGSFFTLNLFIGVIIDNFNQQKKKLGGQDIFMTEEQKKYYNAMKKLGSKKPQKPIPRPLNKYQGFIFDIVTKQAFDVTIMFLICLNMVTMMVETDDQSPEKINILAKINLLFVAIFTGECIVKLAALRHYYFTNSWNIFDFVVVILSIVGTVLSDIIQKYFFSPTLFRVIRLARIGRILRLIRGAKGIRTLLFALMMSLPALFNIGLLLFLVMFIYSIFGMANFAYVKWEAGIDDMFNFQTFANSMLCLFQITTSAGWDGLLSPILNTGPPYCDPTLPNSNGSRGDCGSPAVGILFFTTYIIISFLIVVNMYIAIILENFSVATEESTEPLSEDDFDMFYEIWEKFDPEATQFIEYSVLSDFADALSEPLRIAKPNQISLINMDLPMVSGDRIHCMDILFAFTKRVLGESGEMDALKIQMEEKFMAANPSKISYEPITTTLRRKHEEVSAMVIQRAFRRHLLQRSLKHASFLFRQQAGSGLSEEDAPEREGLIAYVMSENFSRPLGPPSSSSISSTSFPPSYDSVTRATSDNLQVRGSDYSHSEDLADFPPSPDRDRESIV
T1 sequence (Q15858 whole entry): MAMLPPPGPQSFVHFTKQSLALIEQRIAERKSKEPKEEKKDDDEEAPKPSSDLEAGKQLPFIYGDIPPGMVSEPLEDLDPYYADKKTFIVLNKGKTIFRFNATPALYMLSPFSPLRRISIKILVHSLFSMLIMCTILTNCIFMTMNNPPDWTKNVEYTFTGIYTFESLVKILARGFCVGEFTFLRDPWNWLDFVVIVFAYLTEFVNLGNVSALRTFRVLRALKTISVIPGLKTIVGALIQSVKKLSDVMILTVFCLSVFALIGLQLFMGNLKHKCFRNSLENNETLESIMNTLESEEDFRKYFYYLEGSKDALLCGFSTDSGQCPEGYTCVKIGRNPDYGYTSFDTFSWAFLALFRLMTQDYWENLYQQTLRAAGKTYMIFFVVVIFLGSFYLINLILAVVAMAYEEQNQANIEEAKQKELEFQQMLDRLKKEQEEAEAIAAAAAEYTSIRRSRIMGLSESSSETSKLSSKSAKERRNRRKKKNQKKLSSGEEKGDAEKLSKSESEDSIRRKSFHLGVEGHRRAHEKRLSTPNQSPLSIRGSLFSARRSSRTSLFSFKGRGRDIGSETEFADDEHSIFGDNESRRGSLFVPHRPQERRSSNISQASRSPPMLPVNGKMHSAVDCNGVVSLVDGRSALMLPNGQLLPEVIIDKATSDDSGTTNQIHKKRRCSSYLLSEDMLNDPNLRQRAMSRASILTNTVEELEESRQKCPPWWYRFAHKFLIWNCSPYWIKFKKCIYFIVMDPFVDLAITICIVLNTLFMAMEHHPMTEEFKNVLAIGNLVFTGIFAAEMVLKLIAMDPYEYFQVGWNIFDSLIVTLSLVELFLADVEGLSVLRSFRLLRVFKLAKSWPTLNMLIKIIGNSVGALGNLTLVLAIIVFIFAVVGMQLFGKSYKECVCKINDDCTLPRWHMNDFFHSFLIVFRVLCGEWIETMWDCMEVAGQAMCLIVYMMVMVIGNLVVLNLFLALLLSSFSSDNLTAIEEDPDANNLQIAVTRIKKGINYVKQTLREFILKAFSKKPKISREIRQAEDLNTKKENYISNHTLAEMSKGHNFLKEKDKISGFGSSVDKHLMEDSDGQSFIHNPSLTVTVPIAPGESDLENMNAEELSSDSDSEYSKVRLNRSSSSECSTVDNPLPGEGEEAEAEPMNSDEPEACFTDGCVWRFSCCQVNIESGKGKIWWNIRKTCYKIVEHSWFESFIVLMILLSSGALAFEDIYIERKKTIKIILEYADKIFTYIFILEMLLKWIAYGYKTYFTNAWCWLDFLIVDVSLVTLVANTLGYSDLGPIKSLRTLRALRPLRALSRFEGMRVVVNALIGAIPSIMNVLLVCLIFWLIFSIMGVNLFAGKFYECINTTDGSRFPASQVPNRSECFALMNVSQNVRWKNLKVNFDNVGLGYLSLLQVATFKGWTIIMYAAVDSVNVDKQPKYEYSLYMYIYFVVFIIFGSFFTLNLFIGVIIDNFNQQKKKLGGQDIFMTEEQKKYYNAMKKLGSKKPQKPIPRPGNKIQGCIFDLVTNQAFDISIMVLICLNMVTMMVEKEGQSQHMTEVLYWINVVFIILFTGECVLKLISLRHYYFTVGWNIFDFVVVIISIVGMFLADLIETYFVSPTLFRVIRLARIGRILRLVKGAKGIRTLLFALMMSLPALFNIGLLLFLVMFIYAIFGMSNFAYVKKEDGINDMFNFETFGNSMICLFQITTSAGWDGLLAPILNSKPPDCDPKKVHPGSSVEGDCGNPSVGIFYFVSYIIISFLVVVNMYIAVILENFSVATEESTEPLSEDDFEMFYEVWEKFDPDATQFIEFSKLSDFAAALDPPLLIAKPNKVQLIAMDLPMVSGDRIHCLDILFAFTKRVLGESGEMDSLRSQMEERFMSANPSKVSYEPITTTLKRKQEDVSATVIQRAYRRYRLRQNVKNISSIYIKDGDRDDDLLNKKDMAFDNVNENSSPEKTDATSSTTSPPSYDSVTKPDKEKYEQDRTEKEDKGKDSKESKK

inhibition at 10 µM (hNav1.7; [5]) [%] | inhibition at 10 µM (hNav1.7; [6]) [%] | IC50 (hNav1.7; Table 4) [µM] | Nav1.7 IC50 compared to ralfinamide (in words) (hNav1.7; ratio of IC50 values, Table 4) | IC50 (hNav1.8) [µM] | Potency against Nav1.8 compared to ralfinamide (in words) (hNav1.8; ratio of IC50 values, Table 5) | SMILES | % Analgesia (formalin test) (ICR (CD−1) male mice [1]) | inhibition in vivo at 10 mg/kg (ICR (CD−1) male mice [1]) [%] | Percentage of analgesia relative to ralfinamide (times higher) (ICR (CD−1) male mice [1]; formalin test) | Analgesic activity after intragastric administration by mouth (in words) (ICR (CD−1) male mice [1]; formalin test, oral administration assay, compared to ralfinamide) | % Analgesia (acetic acid-induced writhing test) (ICR (CD-1) male mice) | inhibition at 10 µM (hNav1.5) [%] | Inhibitory activity against Nav1.5 (in words) (hNav1.5) | Analgesic effect in mouse hotplate assay (in words) (mouse [2]) | Analgesic effect in tail flick assay (in words) (mouse [3]) | Analgesic response (formalin test) (ICR (CD−1) male mice [4]; 5 mg/kg, intraperitoneal injection) [%] | Dose dependence of analgesic activity (in words) (ICR (CD−1) male mice [4]; formalin test, 2.5 mg/kg, 5 mg/kg and 10 mg/kg by intraperitoneal injection) | Analgesic response (formalin test) (ICR (CD−1) male mice [4]; 20 mg/kg) [%]
15.6 ± 0.8 | 61.8 ± 0.2 | 2.3 ± 0.2 | three times lower | 4.3 ± 0.5 | nearly nine-fold more potent | C[C@H](NCc1cccc(COc2cccc3occc23)c1)C(N)=O [Compound 6a, (S)-2-((3-((Benzofuran-4-yloxy)methyl)benzyl)amino)propanamide] | 84.0 ± 16.2 ^☆ * % | 84 | 1.5–2 times | higher analgesic activity than ralfinamide | 49.7 ± 11.3 ^☆ % | 66.8 ± 1.5 | moderate inhibitory activity | no analgesic effect | no analgesic effect | 69.6 | dose-dependent activity | 
11.8 ± 0.3 | 55.5 ± 2.5 |  |  |  |  | C[C@H](NCc1ccc(COc2cccc3occc23)cc1)C(N)=O [Compound 6b, (S)-2-((4-((Benzofuran-4-yloxy)methyl)benzyl)amino)propanamide] |  | 48.4 ± 26.4 |  |  | 48.0 ± 5.8 ^☆ % |  |  |  |  |  |  | 
12.2 ± 0.7 | 48.1 ± 4.2 |  |  |  |  | C[C@H](NCc1cccc(COc2ccc3occc3c2)c1)C(N)=O [Compound 6c, (S)-2-((3-((Benzofuran-5-yloxy)methyl)benzyl)amino)propanamide] |  | 30.2 ± 19.8 |  |  | 11.2 ± 7.6% |  |  |  |  |  |  | 
10.9 ± 1.1 | 31.8 ± 0.3 |  |  |  |  | C[C@H](NCc1ccc(COc2ccc3occc3c2)cc1)C(N)=O [Compound 6d, (S)-2-((4-((Benzofuran-5-yloxy)methyl)benzyl)amino)propanamide] |  | 42.2 ± 16.3 |  |  | 28.9 ± 8.5 % |  |  |  |  |  |  | 
11.4 ± 1.6 | 58.5 ± 1.8 | 9.4 ± 2.7 |  | 10.1 ± 1.9 |  | C[C@H](NCc1cccc(COc2ccc3ccoc3c2)c1)C(N)=O [Compound 6e, (S)-2-((3-((Benzofuran-6-yloxy)methyl)benzyl)amino)propanamide] |  | 71.7 ± 22 | 1.5–2 times |  | 45.7 ± 17.2 ^☆ % | 70.1 ± 2.2 | moderate inhibitory activity | no analgesic effect | no analgesic effect |  |  | 
12.4 ± 2.9 | 50.4 ± 3.6 | 8.1 ± 1.1 |  | 4.8 ± 0.7 |  | C[C@H](NCc1ccc(COc2ccc3ccoc3c2)cc1)C(N)=O [Compound 6f, (S)-2-((4-((Benzofuran-6-yloxy)methyl)benzyl)amino)propanamide] |  | 67.8 ± 22.7 | 1.5–2 times |  | 63.2 ± 13.3 ^☆ @ % | 48 ± 0.1 | moderate inhibitory activity | no analgesic effect | no analgesic effect |  |  | 

SMILES | inhibition at 10 µM (hNav1.7; [5]) [%] | inhibition at 10 µM (hNav1.7; [6]) [%] | IC50 (hNav1.7; Table 4) [µM] | Nav1.7 IC50 compared to ralfinamide (in words) (hNav1.7; ratio of IC50 values, Table 4) | IC50 (hNav1.8) [µM] | Potency against Nav1.8 compared to ralfinamide (in words) (hNav1.8; ratio of IC50 values, Table 5) | % Analgesia (formalin test) (ICR (CD−1) male mice [1]) | inhibition in vivo at 10 mg/kg (ICR (CD−1) male mice [1]) [%] | Percentage of analgesia relative to ralfinamide (times higher) (ICR (CD−1) male mice [1]; formalin test) | Analgesic activity after intragastric administration by mouth (in words) (ICR (CD−1) male mice [1]; formalin test, oral administration assay, compared to ralfinamide) | % Analgesia (acetic acid-induced writhing test) (ICR (CD-1) male mice) | inhibition at 10 µM (hNav1.5) [%] | Inhibitory activity against Nav1.5 (in words) (hNav1.5) | Analgesic effect in mouse hotplate assay (in words) (mouse [2]) | Analgesic effect in tail flick assay (in words) (mouse [3]) | Analgesic response (formalin test) (ICR (CD−1) male mice [4]; 5 mg/kg, intraperitoneal injection) [%] | Dose dependence of analgesic activity (in words) (ICR (CD−1) male mice [4]; formalin test, 2.5 mg/kg, 5 mg/kg and 10 mg/kg by intraperitoneal injection) | Analgesic response (formalin test) (ICR (CD−1) male mice [4]; 20 mg/kg) [%]
C[C@H](NCc1ccc(OCc2ccccc2F)cc1)C(N)=O [Ralfinamide, reference compound] | 8.1 ± 3.8 | 57.7 ± 3.4 | 6.6 ± 1.6 |  | 36.3 ± 8.9 |  | 42.4 ± 23.3 % | 42.4 |  |  | 44.4 ± 15.5 ^☆ % | 64.6 ± 3.2 |  |  |  |  |  | 59.7
